# Test results taken from PubChem BioAssay AID2060333 (Molecular Pharmacology Branch, DTP, NCI, 2025).
# System: 845751-090-R-J2-PDC tumor spheroid viability
# Experiment: Anticancer human tumor 845751-090-R-J2-PDC patient-derived head and neck squamous carcinoma cell line growth inhibition [IpAb]
# Conditions: spheroids with HUVEC and MSC; for IC50: curve of first compound; for viability, T/C: stronger effect = lower value
# Summary of the method: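 Spheroids of 60% malignant cells, 25% HUVEC and 15% MSC were exposed to targeted agents combined with ipatasertib or abemaciclib. Doses started at or near clinical Cmax (10 microM when unknown) and fell in half-log steps.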
# [1] = second compound 0.1 µM, first compound 0.0316 µM
# [2] = second compound 0.1 µM, first compound 0.1 µM
# [3] = second compound 0.316 µM, first compound 0.0316 µM
# [4] = second compound 0.316 µM, first compound 0.1 µM
# [5] = second compound 1 µM, first compound 0.0316 µM
# [6] = second compound 1 µM, first compound 0.1 µM
# [7] = second compound 3.16 µM, first compound 0.0316 µM
# [8] = second compound 3.16 µM, first compound 0.1 µM
# [9] = second compound 10 µM, first compound 0.0316 µM
# [10] = second compound 10 µM, first compound 0.1 µM
# [11] = second compound 0.1 µM, first compound 0.316 µM
# [12] = second compound 0.1 µM, first compound 1 µM
# [13] = second compound 0.1 µM, first compound 3.16 µM
# [14] = second compound 0.1 µM, first compound 10 µM
# [15] = second compound 0.316 µM, first compound 0.316 µM
# [16] = second compound 0.316 µM, first compound 1 µM
# [17] = second compound 0.316 µM, first compound 3.16 µM
# [18] = second compound 0.316 µM, first compound 10 µM
# [19] = second compound 1 µM, first compound 0.316 µM
# [20] = second compound 1 µM, first compound 1 µM
# [21] = second compound 1 µM, first compound 3.16 µM
# [22] = second compound 1 µM, first compound 10 µM
# 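Note: spheroids exposed to compounds for 7 days before readout.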
# 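Throughout, for viability, T/C: CTG3D luminescence normalised so that 100% = DMSO vehicle control.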
smiles,measurement,setting,value
Cn1ncnc1[C@H]1c2n[nH]c(=O)c3cc(F)cc(c23)N[C@@H]1c1ccc(F)cc1 + CC(C)NCC(C(=O)N1CCN(c2ncnc3c2C(C)CC3O)CC1)c1ccc(Cl)cc1,IC50,second compound 0.1 µM,25.8 nM
same,IC50,second compound 0.316 µM,< 0.316 nM
same,IC50,second compound 1 µM,< 0.316 nM
same,IC50,second compound 3.16 µM,< 0.316 nM
same,IC50,second compound 10 µM,< 0.316 nM
same,"viability, T/C","second compound 0.1 µM, first compound 0.000316 µM",53.9%
same,"viability, T/C","second compound 0.1 µM, first compound 0.001 µM",88.8%
same,"viability, T/C","second compound 0.1 µM, first compound 0.00316 µM",57%
same,"viability, T/C","second compound 0.1 µM, first compound 0.01 µM",49.1%
same,"viability, T/C",[1],54.1%
same,"viability, T/C",[2],33.6%
same,"viability, T/C","second compound 0.316 µM, first compound 0.000316 µM",38.1%
same,"viability, T/C","second compound 0.316 µM, first compound 0.001 µM",25%
same,"viability, T/C","second compound 0.316 µM, first compound 0.00316 µM",34.4%
same,"viability, T/C","second compound 0.316 µM, first compound 0.01 µM",29.6%
same,"viability, T/C",[3],26.1%
same,"viability, T/C",[4],22.3%
same,"viability, T/C","second compound 1 µM, first compound 0.000316 µM",30.1%
same,"viability, T/C","second compound 1 µM, first compound 0.001 µM",27.1%
same,"viability, T/C","second compound 1 µM, first compound 0.00316 µM",23.8%
same,"viability, T/C","second compound 1 µM, first compound 0.01 µM",28.5%
same,"viability, T/C",[5],22.9%
same,"viability, T/C",[6],20%
same,"viability, T/C","second compound 3.16 µM, first compound 0.000316 µM",29.6%
same,"viability, T/C","second compound 3.16 µM, first compound 0.001 µM",22.4%
same,"viability, T/C","second compound 3.16 µM, first compound 0.00316 µM",20.2%
same,"viability, T/C","second compound 3.16 µM, first compound 0.01 µM",24.8%
same,"viability, T/C",[7],14.7%
same,"viability, T/C",[8],14.8%
same,"viability, T/C","second compound 10 µM, first compound 0.000316 µM",14.8%
same,"viability, T/C","second compound 10 µM, first compound 0.001 µM",16.9%
same,"viability, T/C","second compound 10 µM, first compound 0.00316 µM",12.3%
same,"viability, T/C","second compound 10 µM, first compound 0.01 µM",10.7%
same,"viability, T/C",[9],11.6%
same,"viability, T/C",[10],9.65%
CCCS(=O)(=O)Nc1ccc(F)c(C(=O)c2c[nH]c3ncc(-c4ccc(Cl)cc4)cc23)c1F + CC(C)NCC(C(=O)N1CCN(c2ncnc3c2C(C)CC3O)CC1)c1ccc(Cl)cc1,IC50,second compound 0.1 µM,> 10000 nM
same,IC50,second compound 0.316 µM,126 nM
same,IC50,second compound 1 µM,< 31.6 nM
same,IC50,second compound 3.16 µM,< 31.6 nM
same,IC50,second compound 10 µM,< 31.6 nM
same,"viability, T/C",[1],74.3%
same,"viability, T/C",[2],75.2%
same,"viability, T/C",[11],63%
same,"viability, T/C",[12],61.6%
same,"viability, T/C",[13],49%
same,"viability, T/C",[14],53.4%
same,"viability, T/C",[3],47.2%
same,"viability, T/C",[4],52.1%
same,"viability, T/C",[15],46.1%
same,"viability, T/C",[16],55.4%
same,"viability, T/C",[17],56.7%
same,"viability, T/C",[18],38.8%
same,"viability, T/C",[5],46.5%
same,"viability, T/C",[6],45.9%
same,"viability, T/C",[19],37.6%
same,"viability, T/C",[20],31.2%
same,"viability, T/C",[21],42.5%
same,"viability, T/C",[22],24.8%
same,"viability, T/C",[7],41.9%
same,"viability, T/C",[8],42.6%
same,"viability, T/C","second compound 3.16 µM, first compound 0.316 µM",29%
same,"viability, T/C","second compound 3.16 µM, first compound 1 µM",26.5%
same,"viability, T/C","second compound 3.16 µM, first compound 3.16 µM",32%
same,"viability, T/C","second compound 3.16 µM, first compound 10 µM",16.3%
same,"viability, T/C",[9],18.7%
same,"viability, T/C",[10],17.2%
same,"viability, T/C","second compound 10 µM, first compound 0.316 µM",19.6%
same,"viability, T/C","second compound 10 µM, first compound 1 µM",14.7%
same,"viability, T/C","second compound 10 µM, first compound 3.16 µM",15.7%
same,"viability, T/C","second compound 10 µM, first compound 10 µM",7.71%
Cn1nccc1Nc1nccc(-c2ccn(C(CO)c3ccc(Cl)c(F)c3)c(=O)c2)n1 (stereo not given) + CCN1CCN(Cc2ccc(Nc3ncc(F)c(-c4cc(F)c5nc(C)n(C(C)C)c5c4)n3)nc2)CC1,IC50,second compound 0.01 µM,> 10000 nM
same,IC50,second compound 0.0316 µM,> 10000 nM
same,IC50,second compound 0.1 µM,> 10000 nM
same,IC50,second compound 0.316 µM,> 10000 nM
same,IC50,second compound 1 µM,> 10000 nM
same,"viability, T/C","second compound 0.01 µM, first compound 0.0316 µM",185%
same,"viability, T/C","second compound 0.01 µM, first compound 0.1 µM",202%
same,"viability, T/C","second compound 0.01 µM, first compound 0.316 µM",192%
same,"viability, T/C","second compound 0.01 µM, first compound 1 µM",227%
same,"viability, T/C","second compound 0.01 µM, first compound 3.16 µM",198%
same,"viability, T/C","second compound 0.01 µM, first compound 10 µM",135%
same,"viability, T/C","second compound 0.0316 µM, first compound 0.0316 µM",143%
same,"viability, T/C","second compound 0.0316 µM, first compound 0.1 µM",191%
same,"viability, T/C","second compound 0.0316 µM, first compound 0.316 µM",216%
same,"viability, T/C","second compound 0.0316 µM, first compound 1 µM",211%
same,"viability, T/C","second compound 0.0316 µM, first compound 3.16 µM",169%
same,"viability, T/C","second compound 0.0316 µM, first compound 10 µM",133%
same,"viability, T/C",[1],154%
same,"viability, T/C",[2],190%
same,"viability, T/C",[11],181%
same,"viability, T/C",[12],204%
same,"viability, T/C",[13],185%
same,"viability, T/C",[14],132%
same,"viability, T/C",[3],156%
same,"viability, T/C",[4],178%
same,"viability, T/C",[15],210%
same,"viability, T/C",[16],204%
same,"viability, T/C",[17],174%
same,"viability, T/C",[18],106%
same,"viability, T/C",[5],161%
same,"viability, T/C",[6],211%
same,"viability, T/C",[19],224%
same,"viability, T/C",[20],215%
same,"viability, T/C",[21],171%
same,"viability, T/C",[22],86.3%
